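Briefly, cells in 96-well plates were exposed to five compound concentrations for 48 h, and endpoints were estimated by linear interpolation. TGI: total growth inhibition.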
Experiments:
Assay in all cases: NCI-60 cell line screen, 48 h
MALME-3M melanoma = tested on: MALME-3M melanoma
HCT-116 colon = tested on: HCT-116 colon
DMS 114 small cell lung = tested on: DMS 114 small cell lung
XF 498 CNS = tested on: XF 498 CNS
SN12C renal = tested on: SN12C renal
SNB-78 CNS = tested on: SNB-78 CNS
M14 melanoma = tested on: M14 melanoma
MOLT-4 leukemia = tested on: MOLT-4 leukemia
A549 NSCLC = tested on: A549 NSCLC
KM12 colon = tested on: KM12 colon
ACHN renal = tested on: ACHN renal
NCI-H226 lung = tested on: NCI-H226 lung
HCC-2998 colon = tested on: HCC-2998 colon
NCI-H23 lung = tested on: NCI-H23 lung
SK-MEL-28 melanoma = tested on: SK-MEL-28 melanoma
SNB-75 CNS = tested on: SNB-75 CNS
SF-295 CNS = tested on: SF-295 CNS
SW-620 colon = tested on: SW-620 colon
NCI-H522 lung = tested on: NCI-H522 lung
786-0 renal = tested on: 786-0 renal
HT29 colon = tested on: HT29 colon
SNB-19 CNS = tested on: SNB-19 CNS
SK-MEL-2 melanoma = tested on: SK-MEL-2 melanoma
OVCAR-4 ovarian = tested on: OVCAR-4 ovarian
U251 CNS = tested on: U251 CNS
COLO 205 colon = tested on: COLO 205 colon
SF-539 CNS = tested on: SF-539 CNS
UO-31 renal = tested on: UO-31 renal
EKVX NSCLC = tested on: EKVX NSCLC
TK-10 renal = tested on: TK-10 renal
M19-MEL melanoma = tested on: M19-MEL melanoma
LOX IMVI melanoma = tested on: LOX IMVI melanoma
UACC-257 melanoma = tested on: UACC-257 melanoma
K-562 leukemia = tested on: K-562 leukemia
DMS 273 small cell lung = tested on: DMS 273 small cell lung
SF-268 CNS = tested on: SF-268 CNS
DLD-1 colon = tested on: DLD-1 colon
RPMI-8226 leukemia = tested on: RPMI-8226 leukemia
HL-60(TB) leukemia = tested on: HL-60(TB) leukemia
CAKI-1 renal = tested on: CAKI-1 renal
SR leukemia = tested on: SR leukemia
OVCAR-3 ovarian = tested on: OVCAR-3 ovarian
HCT-15 colon = tested on: HCT-15 colon
OVCAR-5 ovarian = tested on: OVCAR-5 ovarian
NCI-H460 lung = tested on: NCI-H460 lung
HOP-18 NSCLC = tested on: HOP-18 NSCLC
OVCAR-8 ovarian = tested on: OVCAR-8 ovarian
HOP-62 NSCLC = tested on: HOP-62 NSCLC
SK-MEL-5 melanoma = tested on: SK-MEL-5 melanoma
CCRF-CEM leukemia = tested on: CCRF-CEM leukemia
LXFL 529 NSCLC = tested on: LXFL 529 NSCLC
HOP-92 NSCLC = tested on: HOP-92 NSCLC
RXF 393 renal = tested on: RXF 393 renal
KM20L2 colon = tested on: KM20L2 colon
SK-OV-3 ovarian = tested on: SK-OV-3 ovarian
UACC-62 melanoma = tested on: UACC-62 melanoma
IGROV1 ovarian = tested on: IGROV1 ovarian
A498 renal = tested on: A498 renal

Measured: TGI

c1cnc2c(c1)-n1cccc1C1(CCSC1)NN2 (stereo unspecified)
> 100 µM: MALME-3M melanoma | HCT-116 colon | DMS 114 small cell lung | XF 498 CNS | SN12C renal | SNB-78 CNS | M14 melanoma | MOLT-4 leukemia | A549 NSCLC | KM12 colon | ACHN renal | NCI-H226 lung | HCC-2998 colon | NCI-H23 lung | SK-MEL-28 melanoma | SNB-75 CNS | SF-295 CNS | SW-620 colon | NCI-H522 lung | 786-0 renal | HT29 colon | SNB-19 CNS | SK-MEL-2 melanoma | OVCAR-4 ovarian | U251 CNS | COLO 205 colon | SF-539 CNS | UO-31 renal | EKVX NSCLC | TK-10 renal | M19-MEL melanoma | LOX IMVI melanoma | UACC-257 melanoma | K-562 leukemia | DMS 273 small cell lung | SF-268 CNS | DLD-1 colon | RPMI-8226 leukemia | HL-60(TB) leukemia | CAKI-1 renal | SR leukemia | OVCAR-3 ovarian | HCT-15 colon | OVCAR-5 ovarian | NCI-H460 lung | HOP-18 NSCLC | OVCAR-8 ovarian | HOP-62 NSCLC | SK-MEL-5 melanoma | CCRF-CEM leukemia

Cc1ccc(NCC(=O)N2CC(=O)Nc3ccccc32)cc1
> 100 µM: MALME-3M melanoma | HCT-116 colon | DMS 114 small cell lung | XF 498 CNS | SN12C renal | SNB-78 CNS | M14 melanoma | MOLT-4 leukemia | A549 NSCLC | LXFL 529 NSCLC | KM12 colon | ACHN renal | NCI-H226 lung | HCC-2998 colon | NCI-H23 lung | SK-MEL-28 melanoma | SNB-75 CNS | SF-295 CNS | SW-620 colon | NCI-H522 lung | 786-0 renal | HOP-92 NSCLC | HT29 colon | SNB-19 CNS | SK-MEL-2 melanoma | OVCAR-4 ovarian | U251 CNS | COLO 205 colon | SF-539 CNS | UO-31 renal | EKVX NSCLC | RXF 393 renal | TK-10 renal | M19-MEL melanoma | LOX IMVI melanoma | UACC-257 melanoma | K-562 leukemia | DMS 273 small cell lung | SF-268 CNS | DLD-1 colon | RPMI-8226 leukemia | HL-60(TB) leukemia | KM20L2 colon | CAKI-1 renal | SR leukemia | OVCAR-3 ovarian | HCT-15 colon | OVCAR-5 ovarian | SK-OV-3 ovarian | NCI-H460 lung | HOP-18 NSCLC | OVCAR-8 ovarian | HOP-62 NSCLC | SK-MEL-5 melanoma | UACC-62 melanoma | CCRF-CEM leukemia

COc1ccc(N2C(=O)c3c(c4[nH]c5ccc(OC)cc5c4c4ccc(C(C)(C)C)cc34)C2=O)cc1
> 100 µM: MALME-3M melanoma | HCT-116 colon | DMS 114 small cell lung | XF 498 CNS | SN12C renal | SNB-78 CNS | M14 melanoma | MOLT-4 leukemia | A549 NSCLC | LXFL 529 NSCLC | KM12 colon | ACHN renal | NCI-H226 lung | HCC-2998 colon | NCI-H23 lung | SK-MEL-28 melanoma | SNB-75 CNS | SF-295 CNS | NCI-H522 lung | 786-0 renal | HOP-92 NSCLC | HT29 colon | SNB-19 CNS | SK-MEL-2 melanoma | OVCAR-4 ovarian | U251 CNS | IGROV1 ovarian | COLO 205 colon | SF-539 CNS | UO-31 renal | EKVX NSCLC | TK-10 renal | M19-MEL melanoma | UACC-257 melanoma | K-562 leukemia | DMS 273 small cell lung | SF-268 CNS | DLD-1 colon | RPMI-8226 leukemia | HL-60(TB) leukemia | OVCAR-3 ovarian | HCT-15 colon | OVCAR-5 ovarian | SK-OV-3 ovarian | NCI-H460 lung | HOP-18 NSCLC | OVCAR-8 ovarian | HOP-62 NSCLC | SK-MEL-5 melanoma | CCRF-CEM leukemia

COc1ccc2c(c1)[n+]([O-])c(-c1ccc(Br)cc1)c(N)[n+]2[O-]
29.7 µM: NCI-H522 lung
55.3 µM: NCI-H23 lung
71.5 µM: SK-MEL-28 melanoma
68.9 µM: DMS 273 small cell lung
60.1 µM: MALME-3M melanoma
32.9 µM: COLO 205 colon
> 100 µM: HCT-116 colon | XF 498 CNS | SN12C renal | SNB-78 CNS | MOLT-4 leukemia | A549 NSCLC | KM12 colon | ACHN renal | NCI-H226 lung | SNB-75 CNS | SF-295 CNS | SW-620 colon | 786-0 renal | HOP-92 NSCLC | HT29 colon | SNB-19 CNS | SK-MEL-2 melanoma | OVCAR-4 ovarian | U251 CNS | IGROV1 ovarian | A498 renal | SF-539 CNS | UO-31 renal | EKVX NSCLC | RXF 393 renal | M19-MEL melanoma | UACC-257 melanoma | K-562 leukemia | SF-268 CNS | DLD-1 colon | HL-60(TB) leukemia | KM20L2 colon | CAKI-1 renal | SR leukemia | OVCAR-3 ovarian | OVCAR-5 ovarian | SK-OV-3 ovarian | NCI-H460 lung | HOP-18 NSCLC | OVCAR-8 ovarian | HOP-62 NSCLC | CCRF-CEM leukemia
57.9 µM: DMS 114 small cell lung
36.5 µM: SK-MEL-5 melanoma
